# The supplement of paper PMC10307832
# How the values were obtained:
# Assay in all cases: relative viability (nuclei count vs DMSO), 5 days (fraction); higher = more cells survive
# TPCA-1 + Linsitinib = compound: C1=CC(=CC=C1C2=CC(=C(S2)NC(=O)N)C(=O)N)F [TPCA-1] + C[C@]1(O)C[C@@H](c2nc(-c3ccc4ccc(-c5ccccc5)nc4c3)c3c(N)nccn32)C1 [Linsitinib] (partner 1 µM)
# Summary of the method: (§1)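 Relative viability equals treated-well nuclei counts divided by vehicle-well nuclei counts. Counts came from 4× images of lung cancer cell lines grown in 1536-well plates for 5 days after pin-tool dosing on the day after seeding. Dosing used one drug alone or a fixed anchor-drug dose plus five library-drug doses (not always all listed) in √10 steps, and values are medians of duplicate plates.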
# TPCA-1 + Pictilisib = compound: C1=CC(=CC=C1C2=CC(=C(S2)NC(=O)N)C(=O)N)F [TPCA-1] + CS(=O)(=O)N1CCN(Cc2cc3nc(-c4cccc5[nH]ncc45)nc(N4CCOCC4)c3s2)CC1 [Pictilisib] (partner 1 µM)
# Summary of the method: as §1
# [1] = compound: C[C@]12O[C@H](C[C@]1(O)CO)n1c3ccccc3c3c4c(c5c6ccccc6n2c5c31)CNC4=O [Lestaurtinib] + CC(=O)c1c(C)c2cnc(Nc3ccc(N4CCNCC4)cn3)nc2n(C2CCCC2)c1=O [Palbociclib] (partner 0.5 µM)
# Summary of the method: as §1
# [2] = compound: C[C@]12O[C@H](C[C@]1(O)CO)n1c3ccccc3c3c4c(c5c6ccccc6n2c5c31)CNC4=O [Lestaurtinib] + Nc1nc2[nH]cc(CCc3ccc(C(=O)N[C@@H](CCC(=O)O)C(=O)O)cc3)c2c(=O)[nH]1 [Pemetrexed] (partner 0.2 µM)
# Summary of the method: as §1
Cell Line,relative viability (TPCA-1 + Linsitinib; first compound 0.04 µM),relative viability (TPCA-1 + Linsitinib; first compound 0.1265 µM),relative viability (TPCA-1 + Linsitinib; first compound 0.4 µM),relative viability (TPCA-1 + Linsitinib; first compound 1.265 µM),relative viability (TPCA-1 + Linsitinib; first compound 4 µM),relative viability (TPCA-1 + Pictilisib; first compound 0.04 µM),relative viability (TPCA-1 + Pictilisib; first compound 0.1265 µM),relative viability (TPCA-1 + Pictilisib; first compound 0.4 µM),relative viability (TPCA-1 + Pictilisib; first compound 1.265 µM),relative viability (TPCA-1 + Pictilisib; first compound 4 µM),relative viability ([1]; first compound 0.005 µM),relative viability ([1]; first compound 0.01581 µM),relative viability ([1]; first compound 0.05 µM),relative viability ([1]; first compound 0.5 µM),relative viability ([2]; first compound 0.005 µM),relative viability ([2]; first compound 0.01581 µM),relative viability ([2]; first compound 0.05 µM),relative viability ([2]; first compound 0.1581 µM),relative viability ([2]; first compound 0.5 µM),relative viability ([1]; first compound 0.1581 µM)
NCI-H727,0.203,0.318,0.342,0.223,0.244,0.389,0.249,0.35,0.28,0.222,0.723,0.713,0.719,0.716,–,–,–,–,–,–
HARA,0.916,0.856,1.05,0.924,0.804,0.591,0.4,0.433,0.393,0.331,0.233,0.32,0.278,0.243,0.265,0.246,0.203,0.171,0.196,0.234
NCI-H2228,0.789,0.723,0.627,0.825,0.455,0.379,0.358,0.402,0.454,0.186,1.03,1.05,0.407,0.275,0.381,0.383,0.299,0.147,0.148,0.28
LCLC-97TM1,0.206,0.188,0.166,0.15,0.159,0.183,0.157,0.199,0.151,0.111,–,0.243,0.133,0.194,–,0.183,0.149,0.146,0.132,0.134
LC-2-ad,0.92,0.71,0.833,0.807,0.331,0.644,0.376,0.488,0.322,0.0862,0.59,0.527,0.418,0.293,0.258,0.277,0.252,0.258,0.186,0.429
NCI-H2342,–,–,–,–,–,–,–,–,–,–,0.518,0.439,0.545,0.504,0.74,0.773,0.796,0.858,0.6,0.526
SW 900,–,–,–,–,–,–,–,–,–,–,0.561,0.666,0.611,0.595,0.517,0.538,0.487,0.532,0.441,0.828
IA-LM,0.75,0.411,0.47,0.259,0.378,0.319,0.339,0.417,0.376,0.404,–,–,–,–,–,–,–,–,–,–
NCI-H596,1.14,1.05,1.13,1.11,1.14,0.402,0.353,0.196,0.388,0.387,–,–,–,–,0.487,0.488,0.504,0.476,0.453,–
EBC-1,1.06,0.825,0.815,0.844,0.814,0.462,0.421,0.466,0.474,0.362,–,–,–,–,–,–,–,–,–,–
ABC-1,0.936,0.714,0.662,0.579,0.524,0.82,0.479,0.672,0.429,0.524,0.618,0.625,0.647,0.42,–,–,–,–,–,0.619
NCI-H1650,–,–,–,–,–,0.7,0.537,0.592,0.423,0.422,0.353,0.433,0.356,0.245,0.472,0.367,0.383,0.319,0.322,0.396
NCI-H1563,1.2,1.23,1.17,1.12,1.16,0.671,0.633,0.63,0.661,0.611,–,–,–,–,0.71,0.855,0.613,0.797,0.723,–
NCI-H1648,–,–,–,–,–,–,–,–,–,–,–,0.317,–,0.466,–,0.806,–,1,0.606,0.393
NCI-H1299,1.13,0.904,0.942,0.777,1.01,0.854,0.669,0.828,0.614,0.243,–,–,–,–,–,–,–,–,–,–
A549,0.627,0.567,0.638,0.469,0.314,0.676,0.517,–,0.378,0.242,–,–,–,–,–,–,–,–,–,–
NCI-H1703,1.01,0.627,0.947,0.546,0.308,0.263,0.284,0.259,–,0.213,–,–,–,–,–,–,–,–,–,–
NCI-H2170,–,–,–,–,–,0.373,0.27,0.32,0.32,0.209,0.325,0.379,0.275,0.218,0.258,0.259,0.259,0.261,0.175,0.394
NCI-H522,–,–,–,–,–,–,–,–,–,–,0.998,1,0.879,0.631,1.01,1.08,1.01,0.784,0.502,0.871
Calu-6,1.15,0.941,0.962,0.847,0.68,0.954,0.841,0.946,0.785,0.469,–,–,–,–,–,–,–,–,–,–
ChaGo-K-1,–,–,–,–,–,0.624,0.704,0.805,0.748,0.334,0.977,0.89,0.77,0.671,0.267,0.268,0.261,0.249,0.205,0.779
